Measurements from patent US12077607B2, “Functional and therapeutic effects of PAR4 cleavage by cathepsin G” (UNIVERSITY OF UTAH RESEARCH FOUNDATION, priority 2021, dated 2024).

Columns and labels:
rat washed platelets = test: Platelet aggregation of rat washed platelets; format: cell-based; conditions: 1 U/mL human thrombin, 1 μM human CatG or 1 mM RA-11mer
Protocol: Platelet and neutrophil isolation. Platelets and neutrophils were isolated as previously described (Yost et al., J Clin Invest. 2016; 126(10):3783-3798). Platelet isolation from dogs, rats and mice was approved by the IACUC. Platelet activation and aggregation were performed as previously described (Manne et al., Blood. 2020; 136(11): 1317-1329).
Platelet isolation, aggregation, and activation. Human washed platelets were prepared and resuspended in Tyrode's Buffer at 2×10^8/mL as described (Edelstein et al., Nat Med. 2013; 19(12):1609-1616). For human and dog platelet comparisons, platelets were prepared using a modified human platelet protocol with final concentrations of […] (Cayman Chemical, Ann Arbor, MI, USA) used during centrifugation steps. Centrifugations after Tyrode's washes was decreased to 1,250×g as described in Cremer et al., PLOS One. 2019; 14(11): e0224891. Platelet aggregation was measured under stirring conditions at 37° C. using a PAP-8E aggregometer after treatment with the following agonists: arachidonic acid (Bio/Data Corporation, Horsham, PA, USA), cathepsin G, elastase, proteinase 3 (Athens Research Group), α-thrombin (Sigma, St. Louis, MO, USA), PAR-1 peptide (SFLLRN) (GL Biochem, China). P-selectin and PAC-1 were measured as previously described (Yee et al., J Thromb Haemost. 2006; 4(9):2043-2050; Tourdot et al., Arterioscler Thromb Vasc Biol. 2014; 34(12):2644-2650).

PAR4-C (SEQ ID NO: 8) = molecular target: T1, PAR4-C (SEQ ID NO: 8) (Homo sapiens, UniProt Q96RI0); test: PAR4 peptide cleavage analysis by LC-MS/MS, PAR4-C; format: biochemical; conditions: CatG 400 nM, 37° C., 15 minutes; thrombin
T1 construct: purchased BIOMATIK (Wilmington, DE, USA); host or cells: chemical synthesis
T1 sequence (Q96RI0 57-78 limits assumed): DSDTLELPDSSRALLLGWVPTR
Protocol: PAR-4 Peptide and Cleavage Analysis. PAR4 synthetic peptides were incubated with protease, snapped frozen, and sent for mass spectrometry analysis. PAR-4B ([…]; SEQ ID NO: 7) and PAR-4C ([…]; SEQ ID NO: 8) were synthesized by BIOMATIK (Wilmington, DE, USA). PAR4-B and PAR4-C were incubated with vehicle, thrombin (100 nM) or cathepsin G (400 nM) at 37° C. for 15 minutes to an hour depending on the experimental condition. After digestion with the indicated protease, reactions were snapped frozen and sent to the University of Arizona, Analytical and Biological Mass Spectrometry Core Facility (Tucson, Arizona) for analysis. LC-MS/MS analysis was done on a Q Exactive Plus mass spectrometer (Thermo Fisher Scientific, San Jose, CA) equipped with an EASY-Spray nanoESI source. […] The peptide identification results were further analyzed with Scaffold Q+S v 4.8.7 (Proteome Software Inc., Portland OR), a program that relies on various search engine results (i.e.: Sequest, X!Tandem, MASCOT) and which uses Bayesian statistics to reliably identify more spectra9.

PAR4-S67E = molecular target: T2, PAR4-S67E (Homo sapiens, UniProt Q96RI0, S67E); test: PAR4 mutant calcium flux assay, HEK293T/17 cells, S67E; format: cell-based; conditions: 100 nM vorapaxar
T2 construct: Flag; expressed in transfected cells; host or cells: HEK293T/17 (ATCC CRL-11268)
T2 sequence (Q96RI0 18-385 S67E): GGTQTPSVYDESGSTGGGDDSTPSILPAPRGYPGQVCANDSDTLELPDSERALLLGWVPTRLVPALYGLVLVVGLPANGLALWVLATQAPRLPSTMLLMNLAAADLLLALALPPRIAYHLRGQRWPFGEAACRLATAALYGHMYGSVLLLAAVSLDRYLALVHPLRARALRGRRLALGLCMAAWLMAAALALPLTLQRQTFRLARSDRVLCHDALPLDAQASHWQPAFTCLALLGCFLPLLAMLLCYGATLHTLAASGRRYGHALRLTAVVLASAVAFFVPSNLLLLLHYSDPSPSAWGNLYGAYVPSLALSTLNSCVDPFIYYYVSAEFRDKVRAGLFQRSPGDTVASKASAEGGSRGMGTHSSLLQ
Protocol: PAR4 mutant calcium flux assays. Using Quikchange Lightning Site-Directed mutagenesis (Agilent) per manufacturing instructions, pCMV-Flag-PAR4-S66E, pCMV-Flag-PAR4-S67E, and pCMV-Flag-PAR4-R68E were generated from mutation of pCMV-Flag-PAR4 and confirmed by sequencing (University of Utah DNA Sequencing Core). Prior to transfection, HEK293T/17 cells (ATCC CRL-11268) were seeded at 4.5×10^4/mL. The following day, cells were transfected with the plasmid of interest using Lipofectamine 2000 (Invitrogen, Carlsbad, CA, USA). Twenty-four hours after transfection, media was removed and replaced with Optimem w/Glutamax (Gibco, Carlsbad, CA, USA) containing vorapaxar (100 nM) (Cayman Chemical, Ann Arbor, MI, USA) and Fura2-QBT (Molecular Devices). Following incubation for 1 hour at 37° C., plate was placed in the Flexstation 3 (Molecular Devices) where agonists, Tyrode's Buffer, cathepsin G (2.5 μM), or α-thrombin (1.5 U/mL), were injected onto cells and calcium mobilization was monitored and recorded.

| Substance | platelet aggregation, species comparison: rats (rat washed platelets) | cleavage of PAR4-C peptide (PAR4-C (SEQ ID NO: 8)) | thrombin-induced calcium flux, S67E mutant compared with WT (PAR4-S67E; thrombin 1.5 U/mL) | CatG-induced calcium flux, S67E mutant compared with WT (PAR4-S67E; CatG 2.5 μM, P<0.001) |
| --- | --- | --- | --- | --- |
| thrombin | induced platelet aggregation | failed to cleave | None of the PAR4 mutants were significantly different than WT |  |
| CatG: serine protease cathepsin G released by activated neutrophils | only induced platelet aggregation in humans and dogs | cleavage between Ser67 (S67)-Arg68 (R68) |  | significantly less calcium flux than WT |
